Measurements as given in the NIST ThermoML archive (doi:10.1021/je700145e).
± gives the expanded uncertainty stated by the source.

Details: Liquid

SMILES: CCCCCCCCO [octan-1-ol]
- mass density (313.14 K, 1004 kPa): 811.26 ± 0.59 kg/m3
- mass density (313.14 K, 2019 kPa): 811.95 ± 0.61 kg/m3
- mass density (313.14 K, 3000 kPa): 812.59 ± 0.63 kg/m3
- mass density (313.14 K, 4020 kPa): 813.22 ± 0.65 kg/m3
- mass density (313.14 K, 4995 kPa): 813.89 ± 0.67 kg/m3
- mass density (313.14 K, 6000 kPa): 814.53 ± 0.69 kg/m3
- mass density (313.14 K, 7007 kPa): 815.21 ± 0.71 kg/m3
- mass density (313.14 K, 8012 kPa): 815.83 ± 0.73 kg/m3
- mass density (313.14 K, 8994 kPa): 816.51 ± 0.75 kg/m3
- mass density (313.14 K, 10014 kPa): 817.19 ± 0.77 kg/m3
- mass density (313.14 K, 11007 kPa): 817.79 ± 0.79 kg/m3
- mass density (313.14 K, 12000 kPa): 818.42 ± 0.81 kg/m3
- mass density (313.14 K, 12997 kPa): 819.05 ± 0.83 kg/m3
- mass density (313.14 K, 14001 kPa): 819.67 ± 0.86 kg/m3
- mass density (313.14 K, 14997 kPa): 820.27 ± 0.88 kg/m3
- mass density (313.14 K, 16002 kPa): 820.89 ± 0.9 kg/m3
- mass density (313.14 K, 17001 kPa): 821.48 ± 0.92 kg/m3
- mass density (313.14 K, 17997 kPa): 822.1 ± 0.94 kg/m3
- mass density (313.14 K, 19004 kPa): 822.69 ± 0.96 kg/m3
- mass density (313.14 K, 20007 kPa): 823.28 ± 0.98 kg/m3
- mass density (313.14 K, 21004 kPa): 823.86 ± 1 kg/m3
- mass density (323.09 K, 1007 kPa): 804.26 ± 0.6 kg/m3
- mass density (323.09 K, 2016 kPa): 804.97 ± 0.62 kg/m3
- mass density (323.09 K, 3019 kPa): 805.7 ± 0.64 kg/m3
- mass density (323.09 K, 4025 kPa): 806.4 ± 0.66 kg/m3
- mass density (323.09 K, 5012 kPa): 807.07 ± 0.68 kg/m3
- mass density (323.09 K, 6093 kPa): 807.82 ± 0.71 kg/m3
- mass density (323.09 K, 7143 kPa): 808.56 ± 0.73 kg/m3
- mass density (323.09 K, 8009 kPa): 809.12 ± 0.75 kg/m3
- mass density (323.09 K, 8989 kPa): 809.77 ± 0.77 kg/m3
- mass density (323.09 K, 10014 kPa): 810.47 ± 0.79 kg/m3
- mass density (323.09 K, 11031 kPa): 811.14 ± 0.81 kg/m3
- mass density (323.09 K, 12010 kPa): 811.82 ± 0.83 kg/m3
- mass density (323.09 K, 13005 kPa): 812.44 ± 0.85 kg/m3
- mass density (323.09 K, 14003 kPa): 813.11 ± 0.87 kg/m3
- mass density (323.09 K, 15012 kPa): 813.76 ± 0.9 kg/m3
- mass density (323.09 K, 16009 kPa): 814.4 ± 0.92 kg/m3
- mass density (323.09 K, 17005 kPa): 815.04 ± 0.94 kg/m3
- mass density (323.09 K, 18013 kPa): 815.66 ± 0.96 kg/m3
- mass density (323.09 K, 19003 kPa): 816.26 ± 0.98 kg/m3
- mass density (323.09 K, 20025 kPa): 816.9 ± 1 kg/m3
- mass density (323.09 K, 21081 kPa): 817.56 ± 1 kg/m3
- mass density (323.09 K, 22009 kPa): 818.09 ± 1.1 kg/m3
- mass density (333.05 K, 1038 kPa): 797.31 ± 0.61 kg/m3
- mass density (333.05 K, 2029 kPa): 798.03 ± 0.63 kg/m3
- mass density (333.05 K, 2999 kPa): 798.76 ± 0.65 kg/m3
- mass density (333.05 K, 4033 kPa): 799.51 ± 0.67 kg/m3
- mass density (333.05 K, 5020 kPa): 800.25 ± 0.69 kg/m3
- mass density (333.05 K, 6014 kPa): 800.97 ± 0.72 kg/m3
- mass density (333.05 K, 7029 kPa): 801.69 ± 0.74 kg/m3
- mass density (333.05 K, 8011 kPa): 802.44 ± 0.76 kg/m3
- mass density (333.05 K, 9005 kPa): 803.11 ± 0.78 kg/m3
- mass density (333.05 K, 10022 kPa): 803.83 ± 0.81 kg/m3
- mass density (333.05 K, 11011 kPa): 804.55 ± 0.83 kg/m3
- mass density (333.05 K, 12021 kPa): 805.23 ± 0.85 kg/m3
- mass density (333.05 K, 13022 kPa): 805.92 ± 0.87 kg/m3
- mass density (333.05 K, 14031 kPa): 806.61 ± 0.89 kg/m3
- mass density (333.05 K, 15010 kPa): 807.28 ± 0.92 kg/m3
- mass density (333.05 K, 16023 kPa): 807.92 ± 0.94 kg/m3
- mass density (333.05 K, 17012 kPa): 808.59 ± 0.96 kg/m3
- mass density (333.05 K, 18035 kPa): 809.23 ± 0.99 kg/m3
- mass density (333.05 K, 19009 kPa): 809.87 ± 1 kg/m3
- mass density (333.05 K, 20002 kPa): 810.51 ± 1 kg/m3
- mass density (333.05 K, 21011 kPa): 811.15 ± 1.1 kg/m3
- mass density (333.05 K, 22019 kPa): 811.82 ± 1.1 kg/m3
- mass density (343.03 K, 1049 kPa): 790.6 ± 0.62 kg/m3
- mass density (343.03 K, 2003 kPa): 791.16 ± 0.64 kg/m3
- mass density (343.03 K, 2981 kPa): 791.93 ± 0.66 kg/m3
- mass density (343.03 K, 4017 kPa): 792.68 ± 0.68 kg/m3
- mass density (343.03 K, 5000 kPa): 793.37 ± 0.71 kg/m3
- mass density (343.03 K, 6005 kPa): 794.05 ± 0.73 kg/m3
- mass density (343.03 K, 7018 kPa): 794.88 ± 0.75 kg/m3
- mass density (343.03 K, 8104 kPa): 795.68 ± 0.78 kg/m3
- mass density (343.03 K, 9014 kPa): 796.44 ± 0.8 kg/m3
- mass density (343.03 K, 10022 kPa): 797.1 ± 0.82 kg/m3
- mass density (343.03 K, 11028 kPa): 797.87 ± 0.84 kg/m3
- mass density (343.03 K, 11997 kPa): 798.58 ± 0.87 kg/m3
- mass density (343.03 K, 13030 kPa): 799.3 ± 0.89 kg/m3
- mass density (343.03 K, 14005 kPa): 800 ± 0.91 kg/m3
- mass density (343.03 K, 15002 kPa): 800.66 ± 0.94 kg/m3
- mass density (343.03 K, 16032 kPa): 801.38 ± 0.96 kg/m3
- mass density (343.03 K, 17016 kPa): 801.99 ± 0.99 kg/m3
- mass density (343.03 K, 18012 kPa): 802.68 ± 1 kg/m3
- mass density (343.03 K, 19005 kPa): 803.29 ± 1 kg/m3
- mass density (343.03 K, 20018 kPa): 803.98 ± 1.1 kg/m3
- mass density (343.03 K, 21014 kPa): 804.61 ± 1.1 kg/m3
- mass density (343.03 K, 22004 kPa): 805.23 ± 1.1 kg/m3
- mass density (352.89 K, 1023 kPa): 782.71 ± 0.63 kg/m3
- mass density (352.89 K, 2011 kPa): 783.55 ± 0.65 kg/m3
- mass density (352.89 K, 3032 kPa): 784.42 ± 0.67 kg/m3
- mass density (352.89 K, 4022 kPa): 785.42 ± 0.7 kg/m3
- mass density (352.89 K, 5005 kPa): 786.18 ± 0.72 kg/m3
- mass density (352.89 K, 6026 kPa): 787.13 ± 0.74 kg/m3
- mass density (352.89 K, 7003 kPa): 787.9 ± 0.77 kg/m3
- mass density (352.89 K, 8016 kPa): 788.71 ± 0.79 kg/m3
- mass density (352.89 K, 9007 kPa): 789.47 ± 0.81 kg/m3
- mass density (352.89 K, 10003 kPa): 790.22 ± 0.84 kg/m3
- mass density (352.89 K, 11022 kPa): 791 ± 0.86 kg/m3
- mass density (352.89 K, 12170 kPa): 791.78 ± 0.89 kg/m3
- mass density (352.89 K, 13015 kPa): 792.51 ± 0.91 kg/m3
- mass density (352.89 K, 14018 kPa): 793.24 ± 0.94 kg/m3
- mass density (352.89 K, 15009 kPa): 794 ± 0.96 kg/m3
- mass density (352.89 K, 16023 kPa): 794.74 ± 0.98 kg/m3
- mass density (352.89 K, 17010 kPa): 795.48 ± 1 kg/m3
- mass density (352.89 K, 18002 kPa): 796.16 ± 1 kg/m3
- mass density (352.89 K, 19029 kPa): 796.9 ± 1.1 kg/m3
- mass density (352.89 K, 20046 kPa): 797.63 ± 1.1 kg/m3
- mass density (352.89 K, 21023 kPa): 798.3 ± 1.1 kg/m3
- mass density (362.77 K, 1051 kPa): 775.67 ± 0.64 kg/m3
- mass density (362.77 K, 2025 kPa): 776.41 ± 0.66 kg/m3
- mass density (362.77 K, 3016 kPa): 777.19 ± 0.68 kg/m3
- mass density (362.77 K, 4009 kPa): 778.05 ± 0.71 kg/m3
- mass density (362.77 K, 4974 kPa): 778.77 ± 0.73 kg/m3
- mass density (362.77 K, 6005 kPa): 779.51 ± 0.76 kg/m3
- mass density (362.77 K, 7006 kPa): 780.3 ± 0.78 kg/m3
- mass density (362.77 K, 8011 kPa): 780.95 ± 0.81 kg/m3
- mass density (362.77 K, 9008 kPa): 781.79 ± 0.83 kg/m3
- mass density (362.77 K, 10034 kPa): 782.62 ± 0.86 kg/m3
- mass density (362.77 K, 11013 kPa): 783.32 ± 0.88 kg/m3
- mass density (362.77 K, 11987 kPa): 784.03 ± 0.91 kg/m3
- mass density (362.77 K, 13015 kPa): 784.77 ± 0.93 kg/m3
- mass density (362.77 K, 14006 kPa): 785.51 ± 0.96 kg/m3
- mass density (362.77 K, 14997 kPa): 786.3 ± 0.98 kg/m3
- mass density (362.77 K, 16001 kPa): 787.03 ± 1 kg/m3
- mass density (362.77 K, 17013 kPa): 787.79 ± 1 kg/m3
- mass density (362.77 K, 17997 kPa): 788.55 ± 1.1 kg/m3
- mass density (362.77 K, 19000 kPa): 789.33 ± 1.1 kg/m3
- mass density (362.77 K, 20023 kPa): 790.04 ± 1.1 kg/m3
- mass density (362.77 K, 21004 kPa): 790.83 ± 1.2 kg/m3
